# Where two headings read alike, the source gives them in different places.
# Tested on: cancer cell lines
# Test: Cancer cell proliferation activity (CellTiterGlo, 72 h)
# Type: cell-based
# Details: 72 h, 72 h, read-out: IC50
# Experimental: Dose response relationships on cell proliferation was assessed for representative Compounds of the Disclosure on cancer cell lines. Briefly, compound treatment of cells started one day after seeding with a final DMSO concentration of 0.1%, and was performed by nanodrop-dispensing using a Tecan Dispenser. 0.1% DMSO (solvent) and Staurosporine (10 μM) served as high control (100% viability) and low control (0% viability), respectively.
# Cells were cultured in the appropriate media. For the assays, cells were seeded in white cell culture-treated flat and clear bottom multiwell plates and incubated at 37° C. overnight before compound was added. After incubation for 72 h at 37° C. at 5% or 10% CO2 dependent on the medium, cell plates were equilibrated to room temperature for one hour, CellTiterGlo reagent (Promega) was added and luminescence was measured approximately an hour later using a luminometer.
# Raw data were converted into percent cell viability relative to the high and low control, which were set to 100% and 0%, respectively.
# The IC50 values are summarized in Tables 9A-1, Table 10A, and Table 10B.
smiles,measurement,setting,value
"CC[C@]1(CO)O[C@@H](n2cc(F)c(N)nc2=O)C[C@@H]1O [Cpd. No. 2, 4-amino-1-((2R,4S,5R)-5-ethyl-4-hydroxy-5-(hydroxymethyl)tetrahydrofuran-2-yl)-5-fluoropyrimidin-2(1H)-one]",IC50,5637 cell line (bladder),8.67 µM
same,IC50,CLS439 cell line (bladder),> 50 µM
same,IC50,HS729 cell line (muscle),> 50 µM
same,IC50,JAR cell line (placenta),> 50 µM
same,IC50,"U20S cell line, bone",> 50 µM
same,IC50,"Homo sapiens, 22Rv1, 72 h, 22RV1 cell line (prostate)",> 50 µM
same,IC50,"Homo sapiens, 786-0, 72 h, 786O cell line (kidney)",> 50 µM
same,IC50,"Homo sapiens, A204, 72 h, A204 cell line (muscle)",1 µM
same,IC50,"Homo sapiens, A549, 72 h, A549 cell line, lung",> 50 µM
same,IC50,"Homo sapiens, A673, 72 h, A673 cell line (bone)",> 50 µM
same,IC50,"Homo sapiens, A2780, 72 h, A2780 cell line (ovary)",> 50 µM
same,IC50,"Homo sapiens, A-375, 72 h, A375 cell line (skin)",> 50 µM
same,IC50,"Homo sapiens, A-431, 72 h, A431 cell line (skin)",> 50 µM
same,IC50,"Homo sapiens, ACHN, ACHN cell line (kidney)",3.2 µM
same,IC50,"Homo sapiens, ASPC1, 72 h, ASPC1 cell line (pancreas)",> 50 µM
same,IC50,"Homo sapiens, BT-20, 72 h, BT20 cell line (breast)",> 50 µM
same,IC50,"Homo sapiens, BXPC-3, 72 h, BXPC3 cell line (pancreas)",> 50 µM
same,IC50,"Homo sapiens, C-33-A, C33A cell line, endometrial",4.92 µM
same,IC50,"Homo sapiens, CAKI-1, 72 h, CAKI1 cell line (kidney)",1.36 µM
same,IC50,"Homo sapiens, COLO 205, 72 h, COLO205 cell line (colon)",> 50 µM
same,IC50,"Homo sapiens, COLO-678, 72 h, COLO678 cell line (colon)",> 50 µM
same,IC50,"Homo sapiens, Ca-Ski, CASKI cell line, endometrial",> 50 µM
same,IC50,"Homo sapiens, Caco-2, 72 h, CACO2 cell line (colon)",> 50 µM
same,IC50,"Homo sapiens, Calu-6, 72 h, CALU6 cell line (lung)",> 50 µM
same,IC50,"Homo sapiens, DLD-1, 72 h, DLD1 cell line (colon)",> 50 µM
same,IC50,"Homo sapiens, DU-145, 72 h, DU145 cell line (prostate)",> 50 µM
same,IC50,"Homo sapiens, EFO-21, 72 h, EFO21 cell line (ovary)",> 50 µM
same,IC50,"Homo sapiens, EJ-28, 72 h, EJ28 cell line (bladder)",> 50 µM
same,IC50,"Homo sapiens, Granta-519, 72 h, GRANTA-519 cell line (hematological)",1.12 µM
same,IC50,"Homo sapiens, HCT-15, 72 h, HCT15 cell line (colon)",> 50 µM
same,IC50,"Homo sapiens, HCT-116, 72 h, HCT116 cell line (colon)",> 50 µM
same,IC50,"Homo sapiens, HEK293, 72 h, HEK293 cell line (kidney)",> 50 µM
same,IC50,"Homo sapiens, HL-60, 72 h, HL-60 cell line (hematological)",> 50 µM
same,IC50,"Homo sapiens, HT-29, 72 h, HT29 cell line (colon)",> 50 µM
same,IC50,"Homo sapiens, HT-1080, 72 h, HT1080 cell line (connective tissue)",> 50 µM
same,IC50,"Homo sapiens, HeLa, HELA cell line, endometrial",> 50 µM
same,IC50,"Homo sapiens, HepG2, 72 h, HEPG2 cell line (liver)",> 50 µM
same,IC50,"Homo sapiens, Hs-578T, HS578T cell line, breast",> 50 µM
same,IC50,"Homo sapiens, IGROV-1, 72 h, IGROV1 cell line (ovary)",> 50 µM
same,IC50,"Homo sapiens, IMR-90, 72 h, IMR90 cell line, lung",> 50 µM
same,IC50,"Homo sapiens, J82, 72 h, J82 cell line (bladder)",> 50 µM
same,IC50,"Homo sapiens, JEG-3, 72 h, JEG3 cell line (placenta)",> 50 µM
same,IC50,"Homo sapiens, JIMT-1, 72 h, JIMT1 cell line (breast)",> 50 µM
same,IC50,"Homo sapiens, K562, 72 h, K-562 cell line (hematological)",> 50 µM
same,IC50,"Homo sapiens, Kasumi 1, 72 h, KASUMI-1 cell line (hematological)",> 50 µM
same,IC50,"Homo sapiens, L-363, 72 h, L-363 cell line (hematological)",> 50 µM
same,IC50,"Homo sapiens, LoVo, LOVO cell line (colon)",> 50 µM
same,IC50,"Homo sapiens, MCF7, 72 h, MCF7 cell line (breast)",> 50 µM
same,IC50,"Homo sapiens, MDA-MB-231, 72 h, MDAMB231 cell line (breast)",> 50 µM
same,IC50,"Homo sapiens, MDA-MB-435, 72 h, MDAMB435 cell line (skin)",> 50 µM
same,IC50,"Homo sapiens, MDA-MB-436, 72 h, MDAMB436 cell line (breast)",> 50 µM
same,IC50,"Homo sapiens, MDA-MB-468, 72 h, MDAMB468 cell line (breast)",> 50 µM
same,IC50,"Homo sapiens, MG-63, 72 h, MG63 cell line (bone)",> 50 µM
same,IC50,"Homo sapiens, MHH-ES-1, 72 h, MHHES1 cell line (bone)",> 50 µM
same,IC50,"Homo sapiens, MIA PaCa-2, 72 h, MIAPACA2 cell line (pancreas)",> 50 µM
same,IC50,"Homo sapiens, MINO, MINO cell line (hematological)",0.25 µM
same,IC50,"Homo sapiens, MV4-11, 72 h, MV4-11 cell line (hematological)",3.4 µM
same,IC50,"Homo sapiens, NCI-H23, 72 h, NCI-H23 cell line (lung)",> 50 µM
same,IC50,"Homo sapiens, NCI-H82, 72 h, NCIH82 cell line (lung)",> 50 µM
same,IC50,"Homo sapiens, NCI-H292, 72 h, NCIH292 cell line (lung)",> 50 µM
same,IC50,"Homo sapiens, NCI-H460, 72 h, NCIH460 cell line (lung)",5.15 µM
same,IC50,"Homo sapiens, OVCAR-3, 72 h, OVCAR3 cell line (ovary)",> 50 µM
same,IC50,"Homo sapiens, OVCAR-4, 72 h, OVCAR4 cell line (ovary)",> 50 µM
same,IC50,"Homo sapiens, PANC-1, 72 h, PANC1 cell line (pancreas)",> 50 µM
same,IC50,"Homo sapiens, PC-3, 72 h, PC3 cell line (prostate)",> 50 µM
same,IC50,"Homo sapiens, PLC-PRF-5, 72 h, PLCPRF5 cell line (liver)",> 50 µM
same,IC50,"Homo sapiens, Panc1005, 72 h, PANC1005 cell line (pancreas)",> 50 µM
same,IC50,"Homo sapiens, RD, RD cell line (muscle)",> 50 µM
same,IC50,"Homo sapiens, Ramos, RAMOS cell line (hematological)",1.77 µM
same,IC50,"Homo sapiens, SAOS-2, 72 h, SAOS2 cell line (bone)",> 50 µM
same,IC50,"Homo sapiens, SF-268, 72 h, SF268 cell line (brain)",> 50 µM
same,IC50,"Homo sapiens, SF-295, 72 h, SF295 cell line (brain)",> 50 µM
same,IC50,"Homo sapiens, SK-BR-3, 72 h, SKBR3 cell line (breast)",17 µM
same,IC50,"Homo sapiens, SK-HEP1, 72 h, SKHEP1 cell line (liver)",> 50 µM
same,IC50,"Homo sapiens, SK-LMS-1, 72 h, SKLMS1 cell line (uterus)",> 50 µM
same,IC50,"Homo sapiens, SK-MEL-5, 72 h, SKMEL5 cell line, skin",> 50 µM
same,IC50,"Homo sapiens, SK-MEL-28, 72 h, SKMEL28 cell line (skin)",> 50 µM
same,IC50,"Homo sapiens, SK-N-AS, SKNAS cell line (brain)",> 50 µM
same,IC50,"Homo sapiens, SK-N-SH, SKNSH cell line (brain)",> 50 µM
same,IC50,"Homo sapiens, SK-OV-3, 72 h, SKOV3 cell line (ovary)",> 50 µM
same,IC50,"Homo sapiens, SNB-75, 72 h, SNB75 cell line (brain)",> 50 µM
same,IC50,"Homo sapiens, SU-DHL10, 72 h, SU-DHL-10 cell line (hematological)",1.97 µM
same,IC50,"Homo sapiens, SU-DHL-6, 72 h, SU-DHL-6 cell line (hematological)",> 50 µM
same,IC50,"Homo sapiens, SW-620, 72 h, SW620 cell line (colon)",> 50 µM
same,IC50,"Homo sapiens, T-24, 72 h, T24 cell line (bladder)",> 50 µM
same,IC50,"Homo sapiens, TE-671, 72 h, TE671 cell line (muscle)",> 50 µM
same,IC50,"Homo sapiens, THP-1, 72 h, THP-1 cell line (hematological)",> 50 µM
same,IC50,"Homo sapiens, U-87 MG, U87MG cell line (brain)",> 50 µM
same,IC50,"Homo sapiens, UMUC3, 72 h, UMUC3 cell line (bladder)",> 50 µM
same,IC50,"Homo sapiens, UO-31, 72 h, UO31 cell line (kidney)",> 50 µM
same,IC50,"Homo sapiens, WSU-NHL, WSU-NHL cell line (hematological)",2.5 µM
same,IC50,"MT-3, 72 h, MT3 cell line (breast)",> 50 µM
same,IC50,"NCI-H358M, NCIH358M cell line (lung)",> 50 µM
same,IC50,"PBMC, PBMC (hematological)",> 50 µM
same,IC50,"RD-ES, RDES cell line (bone)",> 50 µM

# Reference: patent publication US20250215039A1, “NUCLEOSIDES FOR TREATING CANCER” (PRIMEFOUR THERAPEUTICS, INC., priority 2022, published 2025)
